Results on one compound are retold here after patent publication US10639296B2, “Methods to mitigate injury from radiation exposure” (priority 2009, dated 2020).

The structures appear in SMILES notation. Read-outs that look alike come from different tables or passages of the source.

The subject of one data set is hematopoietic stem cells. As to conditions: cited from earlier work.
The test system of data set [1] is mice. The settings on record: data not shown.
Data set [2] relates to mice. As to conditions: total body dose of 8 Gy; Mozobil I.P. 5 mg/kg single injection days later. The method, then: We exposed mice to radiation, total body dose of 8 Gy at a rate of approximately 1 Gy per minute. Subsequently, days later, we administered Mozobil [I.P.] at 5 mg/kg dose as a single injection. We monitored the test mice for lethality.
Data set [3] deals with C57BL/6 mice. The settings on record: for Median survival: 5 mg/kg I.P.
For a further data set, the system named is TGF-beta. As to conditions: 30 days after 30 Gy; 5 mg/kg I.P. on day 7 and 9 post-irradiation; vs 30 Gy alone. From the text:
(§1) Cytokine concentrations were from multiple samples, n=3 or 4 from single mice: one control, one receiving radiation alone and one receiving combined drug and radiation.

A further data set has as its system TNF-alpha. The settings on record: 30 days after 30 Gy; 5 mg/kg I.P. on day 7 and 9 post-irradiation; vs 30 Gy alone.
Description: as §1

The subject of data set [4] is C57BL/6 mice. As to conditions: for cutaneous injury (skin reaction): 5 mg/kg I.P. twice, one week after radiation and 48 hours later. The method, then: We exposed the legs of mice to 25 or 30 Gy radiation at a dose rate of approximately 5 Gy per minute. Subsequently, one week later, we administered Mozobil [LP.] at 5 mg/kg dose followed by another Mozobil administration [5 mg/kg, I.P.] 48 hours later. We monitored the test mice for lesions relating to skin damage.
Skin damage to the hind leg of C57BL/6 mice was measured using a semi-quantitative scale (TABLE ONE).

For data set [5] the following is noted: rapid peak and subsequent clearance; cited from earlier work.
Another data set relates to normal donors. As to conditions: cited from earlier work.
The test system of a further data set is dogs. As to conditions: cited from earlier work.
Another data set has as its system Balb/c mice. The settings on record: 5 mg/kg i.p. 24 hours after 7 Gy.
Data set [6] relates to C57BL/6 mice. As to conditions: 6.5 Gy TBI; 5 mg/kg 72 h after the radiation; 12 days after radiation exposure; n=8.
The mark [7] stands for this setting: dogs after lethal dose of TBI, AMD-3100 mobilized peripheral blood mononuclear cells.

In the case of `c1cc(CN2CCCNCCNCCCNCC2)ccc1CN1CCCNCCNCCCNCC1` [plerixafor], the “mobilization of hematopoietic stem cells from the bone marrow to the bloodstream” value in the data set with hematopoietic stem cells (mice, dogs, and humans) is “strong inducer”. For the same compound, the “G-CSF-induced mobilization of HPCs” value in the data set on hematopoietic stem cells (mouse and human hematopoietic progenitor cells) is listed as “synergistically augmented”. In addition, the “Leg contraction (percent leg extension relative to the unirradiated leg)” value in the data set on mice [1] was “significantly improved”. The “survival (lethality)” value with mice [2] is on record as “significantly enhanced”. For the same compound, the “Survival at 30 days” value came out at 0% with C57BL/6 mice [3] (5 mg/kg I.P. administered 24 h after radiation exposure), 14% with C57BL/6 mice [3] (5 mg/kg I.P. administered 48 h after radiation exposure) and 69% in the data set on C57BL/6 mice [3] (5 mg/kg I.P. administered 72 h after radiation exposure). Also, the Median survival in the data set on C57BL/6 mice [3] (48 h between radiation and drug) is listed as 18 days; with C57BL/6 mice [3] (72 h between radiation and drug), over 30 days; in the data set on Balb/c mice, 18 days. Moreover, the “mitigation from TBI-induced lethality” value with C57BL/6 mice [3] (given after total body irradiation) was “significant mitigation”. Moreover, the “TGF-beta in irradiated skin” value in the data set on TGF-beta is reported as “significantly reduced”. In addition, the “TNF-alpha in irradiated skin” value in the data set with TNF-alpha is reported as “significantly reduced”. The “cutaneous injury (skin reaction)” value with C57BL/6 mice [4] (25 Gy, to day 60) was “soon resolved completely”; in the data set with C57BL/6 mice [4] (30 Gy, approximately day 60), “had some hair loss but were otherwise normal”. Further, the “skin damage (lesions)” value in the data set on C57BL/6 mice [4] (legs, 25 or 30 Gy, 5 mg/kg one week later and again 5 mg/kg I.P. 48 hours later) is given as “significantly reduced”. Also, in data set [5], the “clearance of the drug after injection” value is at most 24 h. In addition, the “side effects of single-dose administration” value in the data set on normal donors is reported as “very minor”. For the same compound, the “tolerability (adverse effects)” value in the data set on dogs (dog, in vivo) is listed as “well tolerated without noticeable adverse effects”. The “Median days to neutrophil recovery” value with dogs (setting [7]) is 9 days. Besides, the “Median days to platelet recovery” value with dogs (setting [7]) is 25 days. Further, the “lethality after total body irradiation” value with dogs (dogs) was “mitigates lethality”. The “number of endogenous spleen colonies (mean)” value with C57BL/6 mice [6] was found to be 47±9.
